# Data as given in publication PMC10755728, “Inhibitors of the Elastase LasB for the Treatment of Pseudomonas aeruginosa Lung Infections” (ACS Central Science, 2023).
# Columns and labels:
# [1] = Microsomal stability, rat liver microsomes; type: in vitro ADME; details: Wistar, pooled liver microsomes
# COX-1 = target: T1, COX-1 (Ovis aries, UniProt P05979); assay: Fluorometric COX-1 inhibitor assay; type: biochemical, human
# T1 construct: purchased Abcam (Cambridge, UK)
# T1 sequence (P05979 25-600): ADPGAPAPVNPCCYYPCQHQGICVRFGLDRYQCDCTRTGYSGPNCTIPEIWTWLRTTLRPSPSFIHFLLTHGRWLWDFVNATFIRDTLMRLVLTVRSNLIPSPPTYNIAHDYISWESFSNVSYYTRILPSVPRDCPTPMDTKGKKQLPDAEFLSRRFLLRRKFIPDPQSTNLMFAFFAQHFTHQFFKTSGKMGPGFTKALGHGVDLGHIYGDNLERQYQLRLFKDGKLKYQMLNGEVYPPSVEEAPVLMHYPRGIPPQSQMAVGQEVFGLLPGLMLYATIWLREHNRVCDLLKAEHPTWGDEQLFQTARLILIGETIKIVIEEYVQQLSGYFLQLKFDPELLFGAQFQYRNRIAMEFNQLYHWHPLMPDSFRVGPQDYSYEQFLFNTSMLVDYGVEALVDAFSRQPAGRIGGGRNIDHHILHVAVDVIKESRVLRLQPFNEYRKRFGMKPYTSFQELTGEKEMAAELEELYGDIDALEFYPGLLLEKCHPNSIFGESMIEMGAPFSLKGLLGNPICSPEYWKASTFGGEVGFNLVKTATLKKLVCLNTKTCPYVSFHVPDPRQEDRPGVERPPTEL
smiles,measurement,setting,value
CC(C)CC(C(=O)Nc1ccc(C(F)(F)F)cc1)P(=O)(O)O (centres unmarked) [Compound 4b],microsomal CLint,[1],< 11.6 µL/min/mg
same,inhibition at 100 µM,COX-1,< 10%
